Measured values from patent US10743535B2, “Insecticide for flight-capable pests” (H&K SOLUTIONS LLC, priority 2017, dated 2020).

Assays:
[1] = tested on: bees; conditions: perhaps contributing to the collapse of bee colonies; cited from earlier work
[2] = tested on: lanternfly; conditions: in vivo; cited from earlier work
[3] = tested on: spotted lanternflies (lycorma delicatula); assay: formulations sprayed on lantern flies to test lethality; type: in vivo; conditions: applied by spraying the top of the insect; lethal = the insect dies within 10 minutes
Method: The concentration of menthol in the insecticide should be sufficient such that it is lethal to the insect. As used herein, the term “lethal” means that, once applied by spraying the top of the insect, the insect dies within 10 minutes. Those of skill in the art can determine a lethal dose of menthol without undue experimentation. Although higher doses tend to result in a shorter kill time, given the expense of menthol, it is generally preferred to minimize its concentration to achieve a sufficient kill time, i.e., less than 10 minutes and preferably less than 2 minutes, and more preferably less than 1 minute.
The following nonlimiting examples illustrate the effectiveness of the insecticide of the present invention. […] In all cases, the formulations were applied to lantern flies to test the effectiveness of the particular formulation, and, in all cases, the formulations were lethal as defined in this application.
Again, in all cases, the formulations were applied to lantern flies to test the effectiveness of the particular formulation, and, in all cases, the formulation were lethal as defined in this application.

Structure (SMILES)	effect on bees [1]	shown to be effective in exterminating the lanternfly [2]	time to kill the lanternfly [2]	lethal to lanternfly [3]
CN/C(=N/CC1CCOC1)N[N+](=O)[O-] (centres unmarked) [Dinotefuran]	detrimental	effective	hours	
CC1(C)C(C=C(Cl)Cl)C1C(=O)OCc1cccc(Oc2ccccc2)c1 (centres unmarked) [Permethrin]		effective		
CC1CCC(C(C)C)C(O)C1 (centres unmarked) [menthol]				lethal
